# According to ChEMBL document CHEMBL3817770, “Design and synthesis of 5-aminolaevulinic acid/3-hydroxypyridinone conjugates for photodynamic therapy: enhancement of protoporphyrin IX production and photo-toxicity in tumor cells” (Medchemcomm, 2016):
# Active and inactive are the calls of the source. No cut-off for these calls is given here.
# Experiments:
# A549 [1] = experiment: Phototoxicity in human A549 cells assessed as cell survival at 200 uM incubated for 4 hrs followed by irradiation with blue light for 5 mins by MTT assay; assay type: functional; details: A549, light or radiation study, read-out: Survival
# A549 [2] = experiment: Increase in protoporphyrin 9 levels in human A549 cells at 200 uM after 6 hrs in presence of CP94 by fluorescence spectrometer plate reader method; assay type: functional
# MDA-MB-435 [3] = experiment: Phototoxicity in human MDA-MB-435 cells assessed as cell survival at 250 uM incubated for 4 hrs followed by irradiation with blue light for 5 mins by MTT assay; assay type: functional; details: MDA-MB-435, light or radiation study, read-out: Survival
# A549 [4] = experiment: Dark toxicity in human A549 cells at 200 uM after 4 hrs by MTT assay; assay type: cell-based; details: a549, 4 h
# A549 [5] = experiment: Increase in protoporphyrin 9 levels in human A549 cells at 200 uM after 3 hrs in presence of CP94 by fluorescence spectrometer plate reader method; assay type: functional
# A549 [6] = experiment: Increase in protoporphyrin 9 levels in human A549 cells at 200 uM after 24 hrs in presence of CP94 by fluorescence spectrometer plate reader method; assay type: functional
# LNCaP [7] = experiment: Phototoxicity in human LNCAP cells assessed as cell survival at 100 uM incubated for 4 hrs followed by irradiation with blue light for 5 mins in presence of CP94 by MTT assay; assay type: functional; details: light or radiation study, read-out: Survival
# MDA-MB-435 [8] = experiment: Phototoxicity in human MDA-MB-435 cells assessed as cell survival at 250 uM incubated for 4 hrs followed by irradiation with blue light for 5 mins in presence of CP94 by MTT assay; assay type: functional; details: MDA-MB-435, light or radiation study, read-out: Survival
# HeLa [9] = experiment: Phototoxicity in human HeLa cells assessed as cell survival at 250 uM incubated for 4 hrs followed by irradiation with blue light for 5 mins in presence of CP94 by MTT assay; assay type: functional; details: light or radiation study, read-out: Survival
# [10] = Phototoxicity in human BPH1 cells assessed as cell survival at 200 uM incubated for 4 hrs followed by irradiation with blue light for 5 mins by MTT assay; assay type: cell-based, BPH-1; details: BPH1 cells, read-out: Survival
# MDA-MB-435 [11] = experiment: Phototoxicity in human MDA-MB-435 cells assessed as cell survival incubated for 4 hrs followed by irradiation with blue light for 5 mins in presence of CP94 by MTT assay; assay type: functional, cell-based
# A549 [12] = experiment: Phototoxicity in human A549 cells assessed as cell survival at 100 uM incubated for 4 hrs followed by irradiation with blue light for 5 mins in presence of CP94 by MTT assay; assay type: functional; details: A549, light or radiation study, read-out: Survival
# MCF7 [13] = experiment: Phototoxicity in human MCF7 cells assessed as cell survival at 100 uM incubated for 4 hrs followed by irradiation with blue light for 5 mins in presence of CP94 by MTT assay; assay type: functional; details: MCF7, light or radiation study, read-out: Survival
# LNCaP [14] = experiment: Increase in protoporphyrin 9 levels in human LNCAP cells at 200 uM after 3 hrs in presence of CP94 by fluorescence spectrometer plate reader method; assay type: functional
# LNCaP [15] = experiment: Increase in protoporphyrin 9 levels in human LNCAP cells at 200 uM after 24 hrs in presence of CP94 by fluorescence spectrometer plate reader method; assay type: functional
# HeLa [16] = experiment: Phototoxicity in human HeLa cells assessed as cell survival incubated for 4 hrs followed by irradiation with blue light for 5 mins in presence of CP94 by MTT assay; assay type: functional, cell-based
# LNCaP [17] = experiment: Increase in protoporphyrin 9 levels in human LNCAP cells at 200 uM after 6 hrs in presence of CP94 by fluorescence spectrometer plate reader method; assay type: functional
# HeLa [18] = experiment: Phototoxicity in human HeLa cells assessed as cell survival at 250 uM incubated for 4 hrs followed by irradiation with blue light for 5 mins by MTT assay; assay type: functional; details: light or radiation study, read-out: Survival
# LNCaP [19] = experiment: Dark toxicity in human LNCAP cells at 200 uM after 4 hrs by MTT assay; assay type: cell-based
# HeLa [20] = experiment: Increase in protoporphyrin 9 levels in human HeLa cells at 50 to 250 uM after 5 hrs in presence of CP94 by fluorescence spectrometer plate reader method; assay type: functional, cell-based
# [21] = Phototoxicity in human BPH1 cells assessed as cell survival at 100 uM incubated for 4 hrs followed by irradiation with blue light for 5 mins in presence of CP94 by MTT assay; assay type: cell-based, BPH-1; details: read-out: Survival
# MDA-MB-435 [22] = experiment: Increase in protoporphyrin 9 levels in human MDA-MB-435 cells at 50 to 250 uM after 5 hrs in presence of CP94 by fluorescence spectrometer plate reader method; assay type: functional, cell-based
# MCF7 [23] = experiment: Dark toxicity in human MCF7 cells at 200 uM after 4 hrs by MTT assay; assay type: cell-based; details: mcf7, 4 h
# KB [24] = experiment: Phototoxicity in human KB cells assessed as cell survival at 200 uM incubated for 4 hrs followed by irradiation with blue light for 5 mins by MTT assay; assay type: functional; details: light or radiation study, read-out: Survival
# [25] = Dark toxicity in human BPH1 cells at 200 uM after 4 hrs by MTT assay; assay type: cell-based; details: bph-1, 4 h
# LNCaP [26] = experiment: Phototoxicity in human LNCAP cells assessed as cell survival at 200 uM incubated for 4 hrs followed by irradiation with blue light for 5 mins by MTT assay; assay type: functional; details: light or radiation study, read-out: Survival
# LNCaP [27] = experiment: Increase in protoporphyrin 9 levels in human LNCAP cells at 200 uM after 24 hrs by fluorescence spectrometer plate reader method; assay type: functional
# KB [28] = experiment: Increase in protoporphyrin 9 levels in human KB cells at 100 uM after 24 hrs by fluorescence spectrometer plate reader method relative to ALA; assay type: functional
# KB [29] = experiment: Increase in protoporphyrin 9 levels in human KB cells at 200 uM after 3 to 24 hrs by fluorescence spectrometer plate reader method; assay type: functional, cell-based
# LNCaP [30] = experiment: Phototoxicity in human LNCAP cells assessed as cell survival at 100 uM incubated for 4 hrs followed by irradiation with blue light for 5 mins by MTT assay; assay type: functional; details: light or radiation study, read-out: Survival
# HeLa [31] = experiment: Phototoxicity in human HeLa cells assessed as cell survival incubated for 4 hrs followed by irradiation with blue light for 5 mins by MTT assay; assay type: functional, cell-based
# A549 [32] = experiment: Increase in protoporphyrin 9 levels in human A549 cells at 200 uM after 24 hrs by fluorescence spectrometer plate reader method relative to ALA and CP94; assay type: functional
# [33] = Increase in protoporphyrin 9 levels in human BPH1 cells at 200 uM after 3 to 24 hrs by fluorescence spectrometer plate reader method; assay type: ADME, cell-based; details: bph-1, 200 µM
# LNCaP [34] = experiment: Increase in protoporphyrin 9 levels in human LNCAP cells at 200 uM after 6 hrs by fluorescence spectrometer plate reader method; assay type: functional
# [35] = Increase in protoporphyrin 9 levels in human BPH1 cells at 100 uM after 24 hrs by fluorescence spectrometer plate reader method relative to ALA; assay type: ADME, cell-based; details: bph-1, 24 h
# A549 [36] = experiment: Increase in protoporphyrin 9 levels in human A549 cells at 200 uM after 6 hrs by fluorescence spectrometer plate reader method relative to ALA and CP94; assay type: functional
# MDA-MB-435 [37] = experiment: Phototoxicity in human MDA-MB-435 cells assessed as cell survival incubated for 4 hrs followed by irradiation with blue light for 5 mins by MTT assay; assay type: functional, cell-based
# A549 [38] = experiment: Phototoxicity in human A549 cells assessed as cell survival at 100 uM incubated for 4 hrs followed by irradiation with blue light for 5 mins by MTT assay; assay type: functional; details: A549, light or radiation study, read-out: Survival
# LNCaP [39] = experiment: Increase in protoporphyrin 9 levels in human LNCAP cells at 100 uM after 24 hrs by fluorescence spectrometer plate reader method relative to ALA; assay type: functional
# A549 [40] = experiment: Increase in protoporphyrin 9 levels in human A549 cells at 100 uM after 24 hrs by fluorescence spectrometer plate reader method relative to ALA; assay type: functional
# A549 [41] = experiment: Increase in protoporphyrin 9 levels in human A549 cells at 200 uM after 3 hrs by fluorescence spectrometer plate reader method relative to ALA and CP94; assay type: functional
# LNCaP [42] = experiment: Increase in protoporphyrin 9 levels in human LNCAP cells at 200 uM after 3 hrs by fluorescence spectrometer plate reader method; assay type: functional
# A549 [43] = experiment: Increase in protoporphyrin 9 levels in human A549 cells at 200 uM after 24 hrs by fluorescence spectrometer plate reader method; assay type: functional
# [44] = Phototoxicity in human BPH1 cells assessed as cell survival at 100 uM incubated for 4 hrs followed by irradiation with blue light for 5 mins by MTT assay; assay type: cell-based, BPH-1; details: read-out: Survival
# MDA-MB-435 [45] = experiment: Increase in protoporphyrin 9 levels in human MDA-MB-435 cells after 5 hrs by fluorescence spectrometer plate reader method; assay type: functional, cell-based
# A549 [46] = experiment: Increase in protoporphyrin 9 levels in human A549 cells at 200 uM after 6 hrs by fluorescence spectrometer plate reader method; assay type: functional
# A549 [47] = experiment: Increase in protoporphyrin 9 levels in human A549 cells at 200 uM after 3 hrs by fluorescence spectrometer plate reader method; assay type: functional
# MCF7 [48] = experiment: Phototoxicity in human MCF7 cells assessed as cell survival at 100 uM incubated for 4 hrs followed by irradiation with blue light for 5 mins by MTT assay; assay type: functional; details: MCF7, light or radiation study, read-out: Survival
# HeLa [49] = experiment: Increase in protoporphyrin 9 levels in human HeLa cells after 5 hrs by fluorescence spectrometer plate reader method; assay type: functional, cell-based
compound,measurement,setting,value
NCC(=O)CCC(=O)O [AMINOLEVULINIC ACID],viability at 200 µM,A549 [1],54.7%
same,Flu intensity,A549 [2],42.1 a.u.
same,viability at 250 µM,MDA-MB-435 [3],61.4%
same,Activity,A549 [4],Non-toxic
same,Flu intensity,A549 [5],17.7 a.u.
same,Flu intensity,A549 [6],77.8 a.u.
same,viability at 100 µM,LNCaP [7],33.1%
same,viability at 250 µM,MDA-MB-435 [8],28.9%
same,viability at 250 µM,HeLa [9],26.9%
same,"viability at 4 h, 200 µM",[10],70.8%
same,Activity,MDA-MB-435 [11],Dose-dependent effect
same,viability at 100 µM,A549 [12],18.4%
same,viability at 100 µM,MCF7 [13],26.7%
same,Flu intensity,LNCaP [14],17.3 a.u.
same,Flu intensity,LNCaP [15],46 a.u.
same,Activity,HeLa [16],Dose-dependent effect
same,Flu intensity,LNCaP [17],31.3 a.u.
same,viability at 250 µM,HeLa [18],58.6%
same,Activity,LNCaP [19],Non-toxic
same,Activity,HeLa [20],Active
same,"viability at 4 h, 100 µM",[21],81.9%
same,Activity,MDA-MB-435 [22],Active
same,Activity,MCF7 [23],Non-toxic
same,viability at 200 µM,KB [24],52.6%
same,Activity,[25],Non-toxic
same,viability at 200 µM,LNCaP [26],61.9%
COC(=O)CCC(=O)CNC(=O)[C@H](Cc1ccccc1)NC(=O)c1c(O)c(=O)ccn1C,Flu intensity,LNCaP [27],58.4 a.u.
same,viability at 200 µM,A549 [1],16.3%
same,fold change (FC),KB [28],2.9
same,viability at 250 µM,MDA-MB-435 [3],11.1%
same,Activity,A549 [4],Non-toxic
same,Activity,KB [29],Active
same,viability at 100 µM,LNCaP [30],26.3%
same,"viability at 4 h, 200 µM",[10],12.4%
same,Activity,HeLa [31],Dose-dependent effect
same,Flu intensity,A549 [32],1.2 a.u.
same,Activity,[33],Non-toxic
same,Flu intensity,LNCaP [34],47.1 a.u.
same,fold change (FC),[35],1.5
same,Flu intensity,A549 [36],1.3 a.u.
same,Activity,MDA-MB-435 [37],Dose-dependent effect
same,viability at 100 µM,A549 [38],14.7%
same,fold change (FC),LNCaP [39],4
same,fold change (FC),A549 [40],3.1
same,Flu intensity,A549 [41],1.6 a.u.
same,Flu intensity,LNCaP [42],25.3 a.u.
same,viability at 250 µM,HeLa [18],15.3%
same,Flu intensity,A549 [43],94.6 a.u.
same,"viability at 4 h, 100 µM",[44],75.1%
same,Activity,LNCaP [19],Non-toxic
same,Activity,MDA-MB-435 [45],Dose-dependent effect
same,Flu intensity,A549 [46],52.9 a.u.
same,Activity,MCF7 [23],Non-toxic
same,Flu intensity,A549 [47],27.7 a.u.
same,viability at 100 µM,MCF7 [48],21.1%
same,viability at 200 µM,KB [24],7.8%
same,Activity,[25],Non-toxic
same,Activity,HeLa [49],Dose-dependent effect
same,viability at 200 µM,LNCaP [26],13.5%
